Laboratory results as given in patent publication US11071731B2, “Allosteric modulators of the mu opioid receptor” (Chiromics, LLC, priority 2017, dated 2021).

Legend:
mu opioid receptor (MOR) [1] = molecular target: T1, mu opioid receptor (MOR) (Homo sapiens, UniProt P35372); assay: Hit Hunter cAMP signaling assay (adenylyl cyclase inhibition), PAM mode with EC20 endomorphin-1; assay type: cell-based
mu opioid receptor (MOR) [2] = molecular target: T1, mu opioid receptor (MOR); assay: PathHunter β-arrestin recruitment assay, PAM mode with EC20 endomorphin-1; assay type: cell-based
Procedure, shortened: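 Enzyme fragment complementation read-out: β-gal ED fragment fused to receptor, EA fused to β-arrestin, recruitment restoring β-gal activity detected by chemiluminescence. EC50 and percent maximal response derived for each compound.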

[3] = adenylyl cyclase inhibition, read-out: cAMP EC50
[4] = maximal response, adenylyl cyclase inhibition
[5] = maximal response, β-arrestin recruitment
[6] = β-arrestin recruitment, read-out: β-arr. EC50
[7] = maximal response for adenylyl cyclase inhibition
[8] = maximal response for β-arrestin recruitment
[9] = cAMP EC50, adenylyl cyclase inhibition

T1 sequence (P35372 whole entry): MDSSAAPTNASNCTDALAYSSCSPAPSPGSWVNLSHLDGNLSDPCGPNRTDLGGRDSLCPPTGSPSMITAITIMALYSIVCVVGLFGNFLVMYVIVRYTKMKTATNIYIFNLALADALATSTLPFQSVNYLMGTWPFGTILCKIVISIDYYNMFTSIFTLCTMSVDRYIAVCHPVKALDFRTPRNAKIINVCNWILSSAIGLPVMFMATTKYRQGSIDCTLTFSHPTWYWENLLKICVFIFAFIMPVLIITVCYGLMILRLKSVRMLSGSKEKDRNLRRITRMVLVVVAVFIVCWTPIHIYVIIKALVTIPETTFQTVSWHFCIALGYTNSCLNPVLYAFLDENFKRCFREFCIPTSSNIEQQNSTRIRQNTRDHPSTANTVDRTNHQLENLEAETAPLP

| Structure (SMILES) | EC50 (mu opioid receptor (MOR) [1]; [3]) | cAMP Max. Resp. (mu opioid receptor (MOR) [1]; [4]) | β-arr Max. Resp. (mu opioid receptor (MOR) [2]; [5]) | EC50 (mu opioid receptor (MOR) [2]; [6]) | cAMP Max. Resp. (mu opioid receptor (MOR) [1]; [7]) | β-arr Max. Resp. (mu opioid receptor (MOR) [2]; [8]) | EC50 (mu opioid receptor (MOR) [1]; [9]) | EC50 (mu opioid receptor (MOR) [1]) | cAMP Max Resp. (mu opioid receptor (MOR) [1]; adenylyl cyclase inhibition, activity switching by MOR PAMs) | EC50 (mu opioid receptor (MOR) [1]; adenylyl cyclase inhibition, activity switching by MOR PAMs, read-out: cAMP EC50) | β-arrestin Max Response (mu opioid receptor (MOR) [2]; β-arrestin recruitment, activity switching by MOR PAMs) | EC50 (mu opioid receptor (MOR) [2]; β-arrestin recruitment, activity switching by MOR PAMs, read-out: β-arrestin EC50) |
| --- | --- | --- | --- | --- | --- | --- | --- | --- | --- | --- | --- | --- |
| Fc1ccc(C2CC(C(F)(F)F)CN2c2nc(Cl)ncc2F)cc1Cl (stereo not shown) [compound 476] | > 2100 nM | D (D represents a maximal response of < 40%) | E (E represents a maximal response of 40-60%) | > 2100 nM |  |  |  |  |  |  |  |  |
| COc1ccc(C2CCCCN2S(=O)(=O)c2ccc(Cl)cc2)cc1Cl (racemic) [compound 51] | 700 to 2100 nM |  |  | > 2100 nM | F (F represents a maximal response of > 60%) | F (F represents a maximal response of > 60%) |  |  |  |  |  |  |
| Fc1cnc(Cl)nc1N1CC(F)(F)CC1c1cccc(C(F)(F)F)c1 (stereo not shown) [compound 467] | > 2100 nM | D (D represents a maximal response of < 40%) | F (F represents a maximal response of > 60%) | > 2100 nM |  |  |  |  |  |  |  |  |
| Fc1cc(C2CCCCN2c2nc(Cl)ncc2F)cc(C(F)(F)F)c1 (stereo not shown) [compound 122] |  |  |  | < 700 nM | F (F represents a maximal response of > 60%) | F (F represents a maximal response of > 60%) | < 700 nM |  |  |  |  |  |
| Fc1ccc(C2CCCCN2c2nc(Cl)ncc2F)cn1 (stereo not shown) [compound 297] |  |  |  |  | E (E represents a maximal response of 40-60%) | E (E represents a maximal response of 40-60%) |  | > 2100 nM |  |  |  |  |
| COc1ccc(C2C(F)CCCN2c2nc(Cl)ncc2F)cc1Br (stereo not shown) [compound 212] |  |  |  | > 2100 nM | E (E represents a maximal response of 40-60%) | F (F represents a maximal response of > 60%) | > 2100 nM |  |  |  |  |  |
| O=S(=O)(c1ccc(Cl)cc1)N1CCCCC1c1cccc(C(F)(F)F)c1 (stereo not shown) [compound 18] | 700 to 2100 nM |  |  | > 2100 nM | D (D represents a maximal response of < 40%) | F (F represents a maximal response of > 60%) |  |  | D (D represents a maximal response of < 40%) | > 2100 nM | F (F represents a maximal response of >60%) | > 2100 nM |
| Cc1nccc(C2CCCCN2c2nc(Cl)ccc2F)n1 (stereo not shown) [compound 381] | < 700 nM |  |  | < 700 nM | D (D represents a maximal response of < 40%) | D (D represents a maximal response of < 40%) |  |  |  |  |  |  |
| CC1CCN(S(=O)(=O)c2ccc(Cl)cc2)C1c1ccc(Cl)cc1 (mixture of isomers) [Compound 88] | > 2100 nM |  |  | > 2100 nM | D (D represents a maximal response of < 40%) | E (E represents a maximal response of 40-60%) |  |  |  |  |  |  |
| CC1CCN(S(=O)(=O)c2ccc(Cl)cc2)C1c1ccc(F)c(C#N)c1 (mixture of isomers) [Compound 93] | > 2100 nM |  |  | 700 to 2100 nM | D (D represents a maximal response of < 40%) | E (E represents a maximal response of 40-60%) |  |  |  |  |  |  |
| COc1cccc(N2CCCCC2c2ccc(F)c(Cl)c2)c1 (stereo not shown) [compound 465] |  | D (D represents a maximal response of < 40%) | E (E represents a maximal response of 40-60%) | > 2100 nM |  |  | > 2100 nM |  |  |  |  |  |
| COc1ccc(C2COCCN2S(=O)(=O)c2ccc(Cl)cc2)cc1Br (racemic) [Compound 222] | 700 to 2100 nM |  |  | > 2100 nM | D (D represents a maximal response of < 40%) | F (F represents a maximal response of > 60%) |  |  |  |  |  |  |
| Fc1ccc(Cl)cc1C1CCCCN1c1nc(Cl)ncc1F (stereo not shown) [compound 400] |  |  |  | < 700 nM | D (D represents a maximal response of < 40%) | D (D represents a maximal response of < 40%) | < 700 nM |  |  |  |  |  |
